Results published in patent US9895390B2, “Methods and assays for combination treatment of cancer” (CHILDREN'S MEDICAL CENTER CORPORATION, priority 2012, dated 2018).

Legend:
Assay type in all cases: cell-based, human
H23 = assay: Etoposide dose response curves in the presence of 5 μM cisplatin; settings: H23 (protected), combination with DZNep
Description: FIG. 25A is a Waterfall plot of cell line growth in 1 μM DZNep for 4 days compared to untreated cells, n=3-5 biological replicates, * indicates p<0.04, ** p<0.007. […] FIG. 25C is a pair of representative etoposide dose response curves performed in the presence of 5 μM cisplatin, the sensitized line PC9 (4.2-fold decrease, p<0.0001) and the protected line H23 (3.4-fold increase, p<0.0001) are shown.
(§1) Cell lines were dissociated, counted and plated at 5000 cells per well in flat bottom opaque tissue culture treated 96 well plates (CytoOne). Edge wells were filled with PBS. The following day, 2× drug diluted in media was added to each well such that the well then contained 100 ul media with 1× drug concentration at the following doses: etoposide; 0, 0.1, 1, 3, 5, 7, 10, 50, 100, 500 μM, cisplatin; 0, 0.1, 1, 5, 10, 30, 70, 100, 500 μM, or doxorubicin; 0, 0.01, 0.1, 0.5, 1, 3, 5, 7, 10, 50 μM. After 4 days, CELLTITER-GLO™ (Promega) was added and luminescence was read on a BioTec plate reader to determine relative cell number in each well. Data were averaged for triplicate or quadruplicate technical replicates and normalized to the untreated wells. Results from three or four independent biological replicate experiments were input into GRAPHPAD PRISM™ software to extrapolate IC50 and s.e.m. of IC50 for a given cell line.

HCC15 [1] = assay: Etoposide dose response curves with or without DZNep, stably transduced lines; settings: HCC15 control cells
Description: (§2) Cell lines were dissociated, counted and plated at 5000 cells per well in flat bottom opaque tissue culture treated 96 well plates (CytoOne). Edge wells were filled with PBS. The following day, 2× drug diluted in media was added to each well such that the well then contained 100 ul media with 1× drug concentration. After 4 days, Cell Titer Glo™ (Promega) was added and luminescence was read on a BioTec plate reader to determine relative cell number in each well. Data were averaged for triplicate or quadruplicate technical replicates, normalized to the untreated wells and input into GraphPad Prism software to extrapolate IC50.
as §1, with “Results from three or four independent biological replicate experiments were input into GRAPHPAD PRISM™ software to extrapolate IC50 and s.e.m. of IC50 for a given cell line.” left out

H460 = assay: as above; settings: H460 control cells
Description: as §2
as §1, with “Results from three or four independent biological replicate experiments were input into GRAPHPAD PRISM™ software to extrapolate IC50 and s.e.m. of IC50 for a given cell line.” left out

EZH2 and H3K27me3 = assay: Western Blot for EZH2 and H3K27me3 on whole cell extracts; settings: 1 μM DZNep, 4 days
Description: For Western blotting, 25 μg of protein extract per sample was denatured with heat and reducing agents, separated on a 4-12% acrylimide gel and transferred to nitrocellulose. Antibodies used for Western blotting were: EZH2 (Cell Signalling), β-actin (AbCAM) and H3K27me3 (Upstate).
Whole cell extracts were made in RIPA buffer (0.5% Deoxycholate, 1% IGEPAL-CA630, 0.1% sodium dodecyl sulfate, 150 mM NaCL, 50 mM Tris-8.1), lysates were cleared by centrifugation, and protein concentrations were quantified with the Pierce BCA Protein Assay Kit (Thermo). For Western blotting, 25 μg of protein extract per sample was denatured with heat and reducing agents, separated on a 4-12% acrylimide gel (BioRad) and transferred to nitrocellulose (GE Healthcare). Antibodies used for Western blotting were: EZH2 (clone D2C9; Cell Signaling; 1:200), Histone H3 (polyclonal; AbCAM ab1791; 1:2000) and H3K27me3 (polyclonal; Millipore 07-449; 1:1000) all incubated overnight at 4° C. Secondary antibody, anti-rabbit-HRP (Santa Cruz sc-2313; 1:5,000), was incubated for 1 hour at room temperature. After washing, chemi-luminescence was visualized with Western Lightning Plus-ECL (PerkinElmer) and exposure onto KODAK BioMax XAR™ film.

HCC15 [2] = assay: Growth rate over 10 day time-course (Cell Titer Glo); settings: HCC15, 1 μM DZNep, 10 day time-course
Description: (§3) FIG. 2A depicts a Western Blot for EZH2 and H3K27me3 performed on whole cell extracts 4 days after indicated treatments, β-actin shown as a loading control. FIG. 2B depicts a graph of the growth rates of matched shGFP and shGFP cells treated with 1 μM DZNep and assayed by Cell Titer Glo at days 3, 5, 7, and 10 post plating at equal densities. Average luminescence ±s.e.m. for 3 replicate wells is shown based on when each shGFP cell line reached logarithmic growth, * indicates p<0.03. FIG. 2C depicts a graph of the response to Etoposide. Cell lines were plated at equal densities and treated a range of etoposide doses with or without 1 μM DZNep. On the 4th day, cell viability was measured using Cell Titer Glo and the percent survival at each dose of etoposide was calculated. Dose response curves were generated for the no DZNep and DZNep treated cells using the GraphPad prism software and IC50s were extrapolated. The fold change±s.e.m. of etoposide IC50 in response to DZNep is plotted, n=4 biological replicates, * indicates p<0.05. Cell lines with mutations in Brg1, EGFR and B-Raf are indicated.

Calu6 = assay: as above; settings: Calu6, 1 μM DZNep, 10 day time-course
Description: as §3

HCC95 = assay: as above; settings: HCC95, 1 μM DZNep, 10 day time-course
Description: as §3

H441 = assay: as above; settings: H441, 1 μM DZNep, 10 day time-course
Description: as §3

H157 = assay: as above; settings: H157, 1 μM DZNep, 10 day time-course
Description: as §3

[3] = test system: sensitized and protected NSCLC cell lines; assay: 7AAD cell cycle flow cytometry
Description: Cell lines were plated at 1.5×10^6 cells per 10 cm plate and treated with drug for 4 days. Cells were then dissociated, fixed with 100% ice cold Ethanol for at least 2 hours, incubated for 30 minutes with 1 mg/mL RNase A and resuspended in 20 μg/mL 7AAD. 30,000 events were collected on the BD Facscalibur™ and analyzed with the ModFit LT™ software. In cases where etoposide treated cells had such abnormal ploidy that ModFit LT™ was unable to correctly model the cell cycle, the data was analyzed manually on FlowJo™ software by setting the gates on the etoposide sample and copying them to the etoposide+DZNep and etoposide shEZH2 samples.
For 7AAD-cell cycle analysis, cell lines were plated at 1.5×10^6 cells per 10 cm plate and treated with drug for 4 days. Cells were then dissociated, fixed with 100% ice cold Ethanol for at least 2 hours, incubated for 30 minutes with 1 mg/mL DNase-free RNase A (Thermo) and resuspended in 20 μg/mL 7-Aminoactinomycin D (7AAD; Invitrogen). 30,000 events were collected on the BD FORTESSA™ and analyzed with the MODFIT LT™ software. Results from three to four independent biological replicate experiments were averaged for each cell line.

increase in etoposide IC50 (H23): 3.4 fold
decrease in etoposide IC50 in response to DZNep (HCC15 [1]): 2 fold
increase in etoposide IC50 in response to DZNep (H460): 2 fold
SMILES: Nc1nccc2c1ncn2[C@@H]1C=C(CO)[C@@H](O)[C@H]1O [DZNep, 3-Deazaneplanocin A]
EZH2 protein abundance and H3K27me3 catalytic mark (EZH2 and H3K27me3): effectively reduced
decrease in proliferation (HCC15 [2]): 3.2 fold
decrease in proliferation (Calu6): 2.1 fold
change in proliferation (HCC95): increased proliferation
decrease in proliferation (H441): 2.1 fold
decrease in proliferation (H157): 2.1 fold
average fewer cells in S phase vs etoposide alone ([3]; protected cell lines, 10 μM etoposide + 1 μM DZNep, 4 days): 10%
average fewer cells in S phase vs etoposide alone ([3]; protected lines, 5 μM etoposide, DZNep 1 μM or shEZH2, 4 days): 14%
average more cells in S phase in response to DZNep ([3]; sensitized cell lines, 10 μM etoposide + 1 μM DZNep, 4 days): 20%
average more cells in S phase ([3]; sensitized lines, 5 μM etoposide, DZNep 1 μM or shEZH2, 4 days): 14%
